Results from patent publication US20210179578A1, “OX1 ANTAGONISTS” (Heptares Therapeutics Limited, priority 2017, published 2021).

Columns and labels:
[1] = molecular target: T1, human OX1 receptor (Homo sapiens, UniProt O43613); test: IPone accumulation assay, CHO cells expressing OX1 (antagonism of orexin A); assay type: cell-based; conditions: IPone accumulation, CHO human OX1, orexin A EC80 challenge (~20 nM); read-out: fpKb average OX1 (converted)
T1 sequence (O43613 1-425): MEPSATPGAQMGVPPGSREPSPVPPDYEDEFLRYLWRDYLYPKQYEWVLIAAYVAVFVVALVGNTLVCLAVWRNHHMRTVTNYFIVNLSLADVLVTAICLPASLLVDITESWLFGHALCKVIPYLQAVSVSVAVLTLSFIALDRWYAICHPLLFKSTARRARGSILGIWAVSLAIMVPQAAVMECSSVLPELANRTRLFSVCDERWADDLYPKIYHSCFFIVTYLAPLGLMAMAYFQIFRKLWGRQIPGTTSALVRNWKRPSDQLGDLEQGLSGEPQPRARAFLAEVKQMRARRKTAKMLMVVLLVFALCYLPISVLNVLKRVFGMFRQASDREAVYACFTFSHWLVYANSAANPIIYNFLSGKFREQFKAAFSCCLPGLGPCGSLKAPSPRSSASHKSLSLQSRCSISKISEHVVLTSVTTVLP
Method: Generation of CHO stable cell lines expressing the human OX1R and OX2R. Stable cell lines for the human OX1R and OX2R receptors were generated through the transfection of CHO cells using the transfection reagent Genejuice (Novagen number 70967) and cDNA coding for either the human OX1R or OX2R. Cells were cultured in Sigma Nutrient Mixture F-12 Ham media (catalog number N6658) supplemented with 10% heat-inactivated FBS. Forty-eight hours after transfection, cells were harvested and placed under geneticin selection by culturing in Sigma Nutrient Mixture F-12 Ham media supplemented with 10% heat-inactivated FBS and geneticin (ThermoFisher Catalog number: 10131035). Selection of the final stable clone for each receptor was made on the basis of receptor expression, assay signal to noise and robustness though increasing passage. Selected clones for the human OX1R and OX2R were then frozen down into liquid nitrogen using Cell Freezing Medium-DMSO (Sigma-Aldrich catalog number: C6164). IPone accumulation assay. A CHO cell line stably expressing either human OX1 or OX2 receptor was used with the IPone HTRF assay kit (CisBio: Part #62[…]) to measure receptor activation. The assay was optimised to measure the ability (potency; fpKb) of antagonists to reduce agonist (orexin A)-induced inositol phosphate turnover. Briefly, cells were plated onto half area 96-well white walled plates at a density of 12,500 cells/well. Sixteen hours post-plating cell growth media was replaced with antagonist concentration-response curve diluted in stimulation buffer (supplied with the kit). Cells were incubated in a humidified incubator (37° C.) for 30 min before an EC80 challenge concentration ( 20 nM (OX1) and 40 nM (OX2)) of orexin A (Tocris catalogue number 1455). After 30 min stimulation in a humidified incubator (37° C.) the assay was terminated by the addition of detection mixture as per manufacturer's instructions. The concentration of compound which reduced orexin-A stimulated turnover of inositol phosphates by 50% (IC50) was calculated by fitting to a four parameter sigmoidal dose response curve. The IC50 values were converted to fpKB values using the orexin A pEC50 value estimated on each plate as well as the challenge concentration interpolated from the orexin A control curve.

[2] = molecular target: T2, human OX2 receptor (Homo sapiens, UniProt O43614); test: IPone accumulation assay, CHO cells expressing OX2 (antagonism of orexin A); assay type: cell-based; conditions: CHO human OX2, orexin A EC80 challenge (40 nM), read-out: fpKb average OX2 (converted)
T2 sequence (O43614 1-444): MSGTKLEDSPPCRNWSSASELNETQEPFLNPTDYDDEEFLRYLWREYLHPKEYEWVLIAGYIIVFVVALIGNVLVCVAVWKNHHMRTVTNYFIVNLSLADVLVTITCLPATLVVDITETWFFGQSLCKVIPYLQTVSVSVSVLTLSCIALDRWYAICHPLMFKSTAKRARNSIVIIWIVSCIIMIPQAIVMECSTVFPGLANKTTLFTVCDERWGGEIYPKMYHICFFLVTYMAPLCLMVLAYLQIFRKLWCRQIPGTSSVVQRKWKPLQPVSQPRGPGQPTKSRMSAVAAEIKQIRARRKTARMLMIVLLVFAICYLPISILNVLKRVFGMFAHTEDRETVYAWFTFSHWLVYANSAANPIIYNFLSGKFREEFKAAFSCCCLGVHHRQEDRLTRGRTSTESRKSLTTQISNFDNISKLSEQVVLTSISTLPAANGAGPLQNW
Method: Generation of CHO stable cell lines expressing the human OX1R and OX2R. Stable cell lines for the human OX1R and OX2R receptors were generated through the transfection of CHO cells using the transfection reagent Genejuice (Novagen number 70967) and cDNA coding for either the human OX1R or OX2R. Cells were cultured in Sigma Nutrient Mixture F-12 Ham media (catalog number N6658) supplemented with 10% heat-inactivated FBS. Forty-eight hours after transfection, cells were harvested and placed under geneticin selection by culturing in Sigma Nutrient Mixture F-12 Ham media supplemented with 10% heat-inactivated FBS and geneticin (ThermoFisher Catalog number: 10131035). Selection of the final stable clone for each receptor was made on the basis of receptor expression, assay signal to noise and robustness though increasing passage. Selected clones for the human OX1R and OX2R were then frozen down into liquid nitrogen using Cell Freezing Medium-DMSO (Sigma-Aldrich catalog number: C6164).
IPone accumulation assay. A CHO cell line stably expressing either human OX1 or OX2 receptor was used with the IPone HTRF assay kit (CisBio: Part #62IPAPEJ) to measure receptor activation. The assay was optimised to measure the ability (potency; fpKb) of antagonists to reduce agonist (orexin A)-induced inositol phosphate turnover. Briefly, cells were plated onto half area 96-well white walled plates at a density of 12,500 cells/well. Sixteen hours post-plating cell growth media was replaced with antagonist concentration-response curve diluted in stimulation buffer (supplied with the kit). Cells were incubated in a humidified incubator (37° C.) for 30 min before an EC80 challenge concentration (˜20 nM (OX1) and 40 nM (OX2)) of orexin A (Tocris catalogue number 1455). After 30 min stimulation in a humidified incubator (37° C.) the assay was terminated by the addition of detection mixture as per manufacturer's instructions. The concentration of compound which reduced orexin-A stimulated turnover of inositol phosphates by 50% (IC50) was calculated by fitting to a four parameter sigmoidal dose response curve. The IC50 values were converted to fpKB values using the orexin A pEC50 value estimated on each plate as well as the challenge concentration interpolated from the orexin A control curve.

Structure (SMILES)	Kb [1] [nM]	Kb [2] [nM]
COc1ncc(C2CCc3c(F)cccc3N(Cc3cc(C#N)ccc3F)C2=O)cc1C(C)(F)F (single isomer, unassigned) [Example 13, 3-({3-[5-(1,1-difluoroethyl)-6-methoxypyridin-3-yl]-6-fluoro-2-oxo-2,3,4,5-tetrahydro-1H-1-benzazepin-1-yl}methyl)-4-fluorobenzonitrile]	50.1	> 794
Cc1ccc(N2CCc3c(F)cccc3N(Cc3c(F)cc(Br)cc3F)C2=O)cc1C(C)(F)F [Example 1, 1-(4-bromo-2,6-difluorobenzyl)-3-[3-(1,1-difluoroethyl)-4-methylphenyl]-6-fluoro-1,3,4,5-tetrahydro-2H-1,3-benzodiazepin-2-one]	158	> 3160
COc1nc(OC)c(C(C)(F)F)cc1N1CCc2c(F)cccc2N(Cc2c(F)cc(Br)cc2F)C1=O [Example 23, 1-(4-bromo-2,6-difluorobenzyl)-3-[5-(1,1-difluoroethyl)-2,6-dimethoxypyridin-3-yl]-6-fluoro-1,3,4,5-tetrahydro-2H-1,3-benzodiazepin-2-one]	50.1	> 1580
COc1ncc(N2CCc3c(F)cccc3N(Cc3c(C)cc(F)cc3F)C2=O)cc1S(C)(=O)=O [Example 18, 1-(2,4-difluoro-6-methylbenzyl)-6-fluoro-3-[6-methoxy-5-(methylsulfonyl)pyridin-3-yl]-1,3,4,5-tetrahydro-2H-1,3-benzodiazepin-2-one]	10	> 3160
[2H]C([2H])([2H])OCc1cc(F)c(CN2C(=O)N(c3cnc(OC)c(C(C)(F)F)c3)CCc3c(F)cccc32)c(F)c1 [Example 5, 3-[5-(1,1-difluoroethyl)-6-methoxypyridin-3-yl]-1-(2,6-difluoro-4-{[(^2H3)methyloxy]methyl}benzyl)-6-fluoro-1,3,4,5-tetrahydro-2H-1,3-benzodiazepin-2-one]	1.58	> 2000
COCc1cc(F)c(CN2C(=O)N(c3cnc(OC)c(C(C)(F)F)c3)CCc3c(F)cccc32)c(F)c1 [Example 7, 3-[5-(1,1-difluoroethyl)-6-methoxypyridin-3-yl]-1-[2,6-difluoro-4-(methoxymethyl)benzyl]-6-fluoro-1,3,4,5-tetrahydro-2H-1,3-benzodiazepin-2-one]	7.94	> 3980
COc1cc(F)c(CN2C(=O)N(c3cnc(OC)c(S(C)(=O)=O)c3)CCc3c(F)cccc32)c(F)c1 [Example 16, 1-(2,6-difluoro-4-methoxybenzyl)-6-fluoro-3-[6-methoxy-5-(methylsulfonyl)pyridin-3-yl]-1,3,4,5-tetrahydro-2H-1,3-benzodiazepin-2-one]	15.8	> 3980
COc1ncc(C2CCc3c(F)cccc3N(Cc3c(F)cc(Br)cc3F)C2=O)cc1C(C)(F)F (single isomer, unassigned) [Example 12, 1-(4-bromo-2,6-difluorobenzyl)-3-[5-(1,1-difluoroethyl)-6-methoxypyridin-3-yl]-6-fluoro-1,3,4,5-tetrahydro-2H-1-benzazepin-2-one]	12.6	> 1000
COc1cc(F)c(CN2C(=O)N(c3cnc(OC)c(S(C)(=O)=O)c3)CCc3c(F)cccc32)c(F)c1F [Example 15, 6-fluoro-3-[6-methoxy-5-(methylsulfonyl)pyridin-3-yl]-1-(2,3,6-trifluoro-4-methoxybenzyl)-1,3,4,5-tetrahydro-2H-1,3-benzodiazepin-2-one]	126	> 3160

Next, values leading:

Kb [1] [nM]	Kb [2] [nM]	Structure (SMILES)
39.8	398	Cc1cc(C)c(S(C)(=O)=O)cc1N1CCc2ccccc2N(Cc2c(F)cc(Br)cc2F)C1=O [Example 29, 1-(4-bromo-2,6-difluorobenzyl)-3-[2,4-dimethyl-5-(methylsulfonyl)phenyl]-1,3,4,5-tetrahydro-2H-1,3-benzodiazepin-2-one]
79.4	> 3980	CCCc1cc(F)c(CN2C(=O)N(c3ccc(C)c(S(C)(=O)=O)c3)CCc3c(F)cccc32)c(F)c1 [Example 28, 1-(2,6-difluoro-4-propylbenzyl)-6-fluoro-3-[4-methyl-3-(methylsulfonyl)phenyl]-1,3,4,5-tetrahydro-2H-1,3-benzodiazepin-2-one]
20	> 3980	Cc1ncc(N2CCc3c(F)cccc3N(Cc3c(F)cc(Br)cc3F)C2=O)cc1OC(F)F [Example 37, 1-(4-bromo-2,6-difluorobenzyl)-3-[5-(difluoromethoxy)-6-methylpyridin-3-yl]-6-fluoro-1,3,4,5-tetrahydro-2H-1,3-benzodiazepin-2-one]
15.8	1000	COCc1cc(F)c(CN2C(=O)N(c3cnc(C)c(C(C)(F)F)c3)CCc3c(F)cccc32)c(F)c1 [Example 33, 3-[5-(1,1-difluoroethyl)-6-methylpyridin-3-yl]-1-[2,6-difluoro-4-(methoxymethyl)benzyl]-6-fluoro-1,3,4,5-tetrahydro-2H-1,3-benzodiazepin-2-one]
31.6	> 2510	Cc1ncc(C2CCc3c(F)cccc3N(Cc3c(F)cc(Br)cc3F)C2=O)cc1S(C)(=O)=O (single isomer, unassigned) [Example 39, 1-(4-bromo-2,6-difluorobenzyl)-6-fluoro-3-[6-methyl-5-(methylsulfonyl)pyridin-3-yl]-1,3,4,5-tetrahydro-2H-1-benzazepin-2-one]
20	> 398	Cc1ncc(C2CCc3c(F)cccc3N(Cc3c(F)cc(Br)cc3F)C2=O)cc1S(C)(=O)=O (single isomer, unassigned) [Example 38, 1-(4-bromo-2,6-difluorobenzyl)-6-fluoro-3-[6-methyl-5-(methylsulfonyl)pyridin-3-yl]-1,3,4,5-tetrahydro-2H-1-benzazepin-2-one]
63.1	> 631	Cc1ncc(N2CCc3c(F)cccc3N(Cc3c(F)cc(Br)cc3F)C2=O)cc1C(C)(F)F [Example 32, 1-(4-bromo-2,6-difluorobenzyl)-3-[5-(1,1-difluoroethyl)-6-methylpyridin-3-yl]-6-fluoro-1,3,4,5-tetrahydro-2H-1,3-benzodiazepin-2-one]
